Measured values from ChEMBL document CHEMBL4715867, “Amycolasporins and Dibenzoyls from Lichen-Associated Amycolatopsis hippodromi and Their Antibacterial and Anti-inflammatory Activities” (J Nat Prod, 2020).
Values after ≈ are worked out from the molar mass of the structure shown. Active and inactive are the calls of the source. The calls are words filed in the database; no cut-off is given here.

How the values were obtained:
Candida albicans = test: Antifungal activity against Candida albicans MYA-2867 at 100 ug/ml after 48 hrs by microbroth dilution method; type: functional, organism-based; conditions: dose 100.0 µg/ml
Cryptococcus neoformans = test: Antifungal activity against Cryptococcus neoformans ATCC 208821 at 100 ug/ml after 72 hrs by microbroth dilution method; type: functional, organism-based; conditions: dose 100.0 µg/ml
Candida parapsilosis = test: Antifungal activity against Candida parapsilosis ATCC 22019 at 100 ug/ml after 48 hrs by microbroth dilution method; type: functional, organism-based; conditions: dose 100.0 µg/ml
Staphylococcus aureus = test: Antibacterial activity against Staphylococcus aureus ATCC 25923 after 24 hrs by microbroth dilution method; type: functional
RAW264.7 [1] = test: Inhibition of LPS-induced NO production in mouse RAW264.7 cells preincubated for 2 hrs followed by LPS-stimulation and measured after 24 hrs by Griess reagent based assay; type: functional, cell-based; conditions: dose 3.3-33 µM, time 26.0 hrs
Escherichia coli = test: Antibacterial activity against Escherichia coli ATCC 25922 after 24 hrs by microbroth dilution method; type: functional
Bacillus subtilis = test: Antibacterial activity against Bacillus subtilis ATCC 6633 after 24 hrs by microbroth dilution method; type: functional
RAW264.7 [2] = test: Inhibition of LPS-induced NO production in mouse RAW264.7 cells assessed as reduction in iNOS protein expression preincubated for 2 hrs followed by LPS-stimulation and measured after 24 hrs by Western blot analysis; type: functional, cell-based; conditions: dose 3.3-33 µM, time 26.0 hrs

| MIC (Staphylococcus aureus) [µg/mL] | MIC (Escherichia coli) [µg/mL] | MIC (Bacillus subtilis) [µg/mL] | SMILES | Activity (Candida albicans) | Activity (Cryptococcus neoformans) | Activity (Candida parapsilosis) | inhibition (RAW264.7 [1]) | inhibition (RAW264.7 [2]) |
| --- | --- | --- | --- | --- | --- | --- | --- | --- |
| 25 (≈ 142 µM) | 25 (≈ 142 µM) | 25 (≈ 142 µM) | NC(=O)c1cc2c(cn1)CCC2=O | inactive | inactive | inactive | – | – |
| – | – | – | COc1ccc(C(=O)Cc2ccc(O)cc2)c(O)c1 | – | – | – | Dose-dependent effect | Dose-dependent effect |
| 25 (≈ 121 µM) | 25 (≈ 121 µM) | 25 (≈ 121 µM) | CO[C@@H]1CC(=O)c2cc(C(N)=O)ncc21 | inactive | inactive | inactive | – | – |

| SMILES | MIC (Staphylococcus aureus) [µg/mL] | MIC (Escherichia coli) [µg/mL] | MIC (Bacillus subtilis) [µg/mL] | Activity (Candida albicans) | Activity (Cryptococcus neoformans) | Activity (Candida parapsilosis) | inhibition (RAW264.7 [1]) | inhibition (RAW264.7 [2]) |
| --- | --- | --- | --- | --- | --- | --- | --- | --- |
| COC(=O)[C@]1(O)C=Cc2cnc(C(N)=O)cc21 | 25 (≈ 107 µM) | 25 (≈ 107 µM) | 25 (≈ 107 µM) | inactive | inactive | inactive | Dose-dependent effect | Dose-dependent effect |
